Results taken from PubChem BioAssay (NCI).
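1) Cells in 96-well plates. 2) Compound, 48 h, 5 concentrations. 3) Linear interpolation between surrounding doses. 4) Unreached endpoint = highest concentration. Definition used: TGI = concentration required for complete inhibition of growth.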

Tests used:
Experiment in all cases: growth of human tumour cells (NCI), 48 h
SW-620 colon = system: SW-620 colon
HL-60(TB) leukemia = system: HL-60(TB) leukemia
OVCAR-8 ovarian = system: OVCAR-8 ovarian
ACHN renal = system: ACHN renal
NCI-H23 lung = system: NCI-H23 lung
HOP-92 NSCLC = system: HOP-92 NSCLC
SF-539 CNS = system: SF-539 CNS
T-47D breast = system: T-47D breast
K-562 leukemia = system: K-562 leukemia
HCT-15 colon = system: HCT-15 colon
786-0 renal = system: 786-0 renal
OVCAR-5 ovarian = system: OVCAR-5 ovarian
A549 NSCLC = system: A549 NSCLC
MCF7 breast = system: MCF7 breast
CAKI-1 renal = system: CAKI-1 renal
EKVX NSCLC = system: EKVX NSCLC
HCT-116 colon = system: HCT-116 colon
UACC-257 melanoma = system: UACC-257 melanoma
MOLT-4 leukemia = system: MOLT-4 leukemia
TK-10 renal = system: TK-10 renal
SK-OV-3 ovarian = system: SK-OV-3 ovarian
UO-31 renal = system: UO-31 renal
PC-3 prostate = system: PC-3 prostate
SK-MEL-5 melanoma = system: SK-MEL-5 melanoma
HS 578T breast = system: HS 578T breast
RXF 393 renal = system: RXF 393 renal
COLO 205 colon = system: COLO 205 colon
SN12C renal = system: SN12C renal
SNB-75 CNS = system: SNB-75 CNS
SK-MEL-28 melanoma = system: SK-MEL-28 melanoma
NCI-H226 lung = system: NCI-H226 lung
DU-145 prostate = system: DU-145 prostate
OVCAR-4 ovarian = system: OVCAR-4 ovarian
MALME-3M melanoma = system: MALME-3M melanoma
U251 CNS = system: U251 CNS
MDA-MB-435 = system: MDA-MB-435
RPMI-8226 leukemia = system: RPMI-8226 leukemia
MDA-MB-231 breast = system: MDA-MB-231 breast
IGROV1 ovarian = system: IGROV1 ovarian
SK-MEL-2 melanoma = system: SK-MEL-2 melanoma
LOX IMVI melanoma = system: LOX IMVI melanoma
UACC-62 melanoma = system: UACC-62 melanoma
HOP-62 NSCLC = system: HOP-62 NSCLC
SF-295 CNS = system: SF-295 CNS
SNB-19 CNS = system: SNB-19 CNS
CCRF-CEM leukemia = system: CCRF-CEM leukemia
M14 melanoma = system: M14 melanoma
SF-268 CNS = system: SF-268 CNS
MDA-N = system: MDA-N
HT29 colon = system: HT29 colon
NCI/ADR-RES ovarian = system: NCI/ADR-RES ovarian
SR leukemia = system: SR leukemia
HCC-2998 colon = system: HCC-2998 colon
NCI-H522 lung = system: NCI-H522 lung
A498 renal = system: A498 renal
KM12 colon = system: KM12 colon
OVCAR-3 ovarian = system: OVCAR-3 ovarian
NCI-H460 lung = system: NCI-H460 lung

SMILES: CCCC1C(CC)C(NC)C(C#N)(C#N)C1(C#N)C#N (centres undefined)
- TGI (SW-620 colon): > 100 µM
- TGI (HL-60(TB) leukemia): 91.8 µM
- TGI (OVCAR-8 ovarian): 58.9 µM
- TGI (ACHN renal): 43.1 µM
- TGI (NCI-H23 lung): 46.8 µM
- TGI (HOP-92 NSCLC): 32.2 µM
- TGI (SF-539 CNS): 34.8 µM
- TGI (T-47D breast): 29 µM
- TGI (K-562 leukemia): > 100 µM
- TGI (HCT-15 colon): 28.7 µM
- TGI (786-0 renal): 34.3 µM
- TGI (OVCAR-5 ovarian): > 100 µM
- TGI (A549 NSCLC): > 100 µM
- TGI (MCF7 breast): > 100 µM
- TGI (CAKI-1 renal): 25.9 µM
- TGI (EKVX NSCLC): 87.6 µM
- TGI (HCT-116 colon): 30.1 µM
- TGI (UACC-257 melanoma): 33.3 µM
- TGI (MOLT-4 leukemia): 76.9 µM
- TGI (TK-10 renal): 34.6 µM
- TGI (SK-OV-3 ovarian): > 100 µM
- TGI (UO-31 renal): 30 µM
- TGI (PC-3 prostate): 39.9 µM
- TGI (SK-MEL-5 melanoma): 24.5 µM
- TGI (HS 578T breast): > 100 µM
- TGI (RXF 393 renal): 28 µM
- TGI (COLO 205 colon): 26.6 µM
- TGI (SN12C renal): 34.5 µM
- TGI (SNB-75 CNS): 22.5 µM
- TGI (SK-MEL-28 melanoma): 94.3 µM
- TGI (NCI-H226 lung): 35.4 µM
- TGI (DU-145 prostate): 27.2 µM
- TGI (OVCAR-4 ovarian): > 100 µM
- TGI (MALME-3M melanoma): 63.8 µM
- TGI (U251 CNS): 95.1 µM
- TGI (MDA-MB-435): > 100 µM
- TGI (RPMI-8226 leukemia): 43.8 µM
- TGI (MDA-MB-231 breast): 30.1 µM
- TGI (IGROV1 ovarian): 33.4 µM
- TGI (SK-MEL-2 melanoma): 35.7 µM
- TGI (LOX IMVI melanoma): 36.1 µM
- TGI (UACC-62 melanoma): 39.2 µM
- TGI (HOP-62 NSCLC): 29.2 µM
- TGI (SF-295 CNS): 41.9 µM
- TGI (SNB-19 CNS): 48.5 µM
- TGI (CCRF-CEM leukemia): > 100 µM
- TGI (M14 melanoma): > 100 µM
- TGI (SF-268 CNS): 34.3 µM
- TGI (MDA-N): 36.1 µM
- TGI (HT29 colon): 27.6 µM
- TGI (NCI/ADR-RES ovarian): 59 µM
- TGI (SR leukemia): 82.3 µM
- TGI (HCC-2998 colon): 32.9 µM
- TGI (NCI-H522 lung): 33.3 µM
- TGI (A498 renal): 31.9 µM
- TGI (KM12 colon): 30.9 µM

SMILES: COc1cc(C=O)cc(/C=N/c2ccccn2)c1O
- TGI (OVCAR-3 ovarian): 59.1 µM
- TGI (SW-620 colon): > 100 µM
- TGI (HL-60(TB) leukemia): 83.3 µM
- TGI (OVCAR-8 ovarian): 12 µM
- TGI (ACHN renal): 6.97 µM
- TGI (NCI-H23 lung): > 100 µM
- TGI (NCI-H460 lung): 42.7 µM
- TGI (HOP-92 NSCLC): 8.55 µM
- TGI (SF-539 CNS): 8.84 µM
- TGI (T-47D breast): > 100 µM
- TGI (K-562 leukemia): > 100 µM
- TGI (HCT-15 colon): > 100 µM
- TGI (786-0 renal): > 100 µM
- TGI (OVCAR-5 ovarian): > 100 µM
- TGI (A549 NSCLC): > 100 µM
- TGI (MCF7 breast): > 100 µM
- TGI (CAKI-1 renal): 9.76 µM
- TGI (EKVX NSCLC): > 100 µM
- TGI (HCT-116 colon): > 100 µM
- TGI (UACC-257 melanoma): 55.3 µM
- TGI (MOLT-4 leukemia): 88.7 µM
- TGI (TK-10 renal): > 100 µM
- TGI (SK-OV-3 ovarian): 78 µM
- TGI (UO-31 renal): 14.1 µM
- TGI (PC-3 prostate): 25.6 µM
- TGI (SK-MEL-5 melanoma): 11.4 µM
- TGI (HS 578T breast): 70.6 µM
- TGI (RXF 393 renal): 4.97 µM
- TGI (COLO 205 colon): 29.5 µM
- TGI (SN12C renal): 88.8 µM
- TGI (SNB-75 CNS): 16.3 µM
- TGI (SK-MEL-28 melanoma): 21.9 µM
- TGI (NCI-H226 lung): 38.4 µM
- TGI (DU-145 prostate): > 100 µM
- TGI (OVCAR-4 ovarian): > 100 µM
- TGI (MALME-3M melanoma): 14.9 µM
- TGI (U251 CNS): 55.2 µM
- TGI (MDA-MB-435): 41.4 µM
- TGI (RPMI-8226 leukemia): 51.9 µM
- TGI (MDA-MB-231 breast): > 100 µM
- TGI (SK-MEL-2 melanoma): 10.5 µM
- TGI (LOX IMVI melanoma): 30.9 µM
- TGI (UACC-62 melanoma): > 100 µM
- TGI (HOP-62 NSCLC): 80 µM
- TGI (SF-295 CNS): > 100 µM
- TGI (SNB-19 CNS): > 100 µM
- TGI (CCRF-CEM leukemia): > 100 µM
- TGI (M14 melanoma): 62.2 µM
- TGI (SF-268 CNS): 19 µM
- TGI (MDA-N): 35.6 µM
- TGI (HT29 colon): 55 µM
- TGI (NCI/ADR-RES ovarian): > 100 µM
- TGI (SR leukemia): 34.5 µM
- TGI (HCC-2998 colon): > 100 µM
- TGI (A498 renal): 31.3 µM
- TGI (KM12 colon): > 100 µM

SMILES: O=C1OCC=C1COC1OC(CO)C(O)C(O)C1O (centres undefined)
- TGI (OVCAR-3 ovarian): > 100 µM
- TGI (SW-620 colon): > 100 µM
- TGI (HL-60(TB) leukemia): > 100 µM
- TGI (OVCAR-8 ovarian): > 100 µM
- TGI (ACHN renal): > 100 µM
- TGI (NCI-H23 lung): > 100 µM
- TGI (NCI-H460 lung): > 100 µM
- TGI (HOP-92 NSCLC): > 100 µM
- TGI (SF-539 CNS): > 100 µM
- TGI (T-47D breast): > 100 µM
- TGI (K-562 leukemia): > 100 µM
- TGI (HCT-15 colon): > 100 µM
- TGI (786-0 renal): > 100 µM
- TGI (OVCAR-5 ovarian): > 100 µM
- TGI (A549 NSCLC): > 100 µM
- TGI (MCF7 breast): > 100 µM
- TGI (CAKI-1 renal): > 100 µM
- TGI (EKVX NSCLC): > 100 µM
- TGI (HCT-116 colon): > 100 µM
- TGI (UACC-257 melanoma): > 100 µM
- TGI (MOLT-4 leukemia): > 100 µM
- TGI (TK-10 renal): > 100 µM
- TGI (SK-OV-3 ovarian): > 100 µM
- TGI (UO-31 renal): > 100 µM
- TGI (PC-3 prostate): > 100 µM
- TGI (SK-MEL-5 melanoma): > 100 µM
- TGI (HS 578T breast): > 100 µM
- TGI (RXF 393 renal): > 100 µM
- TGI (COLO 205 colon): > 100 µM
- TGI (SN12C renal): > 100 µM
- TGI (SNB-75 CNS): > 100 µM
- TGI (SK-MEL-28 melanoma): > 100 µM
- TGI (NCI-H226 lung): > 100 µM
- TGI (DU-145 prostate): > 100 µM
- TGI (OVCAR-4 ovarian): > 100 µM
- TGI (MALME-3M melanoma): > 100 µM
- TGI (U251 CNS): > 100 µM
- TGI (MDA-MB-435): > 100 µM
- TGI (RPMI-8226 leukemia): > 100 µM
- TGI (MDA-MB-231 breast): > 100 µM
- TGI (IGROV1 ovarian): > 100 µM
- TGI (SK-MEL-2 melanoma): > 100 µM
- TGI (LOX IMVI melanoma): > 100 µM
- TGI (HOP-62 NSCLC): > 100 µM
- TGI (SF-295 CNS): > 100 µM
- TGI (SNB-19 CNS): > 100 µM
- TGI (CCRF-CEM leukemia): > 100 µM
- TGI (M14 melanoma): > 100 µM
- TGI (SF-268 CNS): > 100 µM
- TGI (MDA-N): > 100 µM
- TGI (HT29 colon): > 100 µM
- TGI (NCI/ADR-RES ovarian): > 100 µM
- TGI (SR leukemia): > 100 µM
- TGI (HCC-2998 colon): > 100 µM
- TGI (NCI-H522 lung): 39.3 µM
- TGI (A498 renal): > 100 µM
- TGI (KM12 colon): > 100 µM
